Test results: article PMC6917776, “Discovery of a chemical probe for PRDM9” (Nature Communications, 2019)
Where “and” joins values, the source holds several entries; their conditions need not be identical. Equal values may be shown once.

Tested on: H3K4me3 at known PRDM9 binding loci and control TSS loci
Test: ChIP-qPCR of H3K4me3 in PRDM9-transfected HEK293T cells
Format: cell-based, human
Details: for 2^-dCq / dCq (IP-Input) / 2^-dCq (H3K4me3 IP relative to H3 IP) / Cq / 2^-dCq (H3K4me3 ChIP relative to H3 ChIP) / 2^-dCq (H3K4me3 ChIP-qPCR, IP relative to H3) / <Cq>: Antibody H3K4me3; for 2^-dCq / dCq (IP-Input) / Cq / <Cq>: Figure 7 Replicate 2; for 2^-dCq (H3K4me3 IP relative to H3 IP): ChIP-qPCR Replicate 1; for Cq: ChIP-qPCR single well; for 2^-dCq (H3K4me3 ChIP relative to H3 ChIP): Replicate 1; for 2^-dCq (H3K4me3 ChIP-qPCR, IP relative to H3) / H3K4me3 ChIP-qPCR 2^-dCq (IP-Input): Replicate 2; for H3K4me3 ChIP-qPCR 2^-dCq (IP-Input): H3K4me3 antibody relative to H3; for <Cq>: mean of two wells
Procedure: ChIP-qPCR assays were then conducted on known PRDM9 binding loci[26]. Ectopic expression of PRDM9^WT increased trimethylation of H3K4 (H3K4me3) at previously described PRDM9-specific intragenic and intergenic regions[26] (Fig. 7; Supplementary Fig. 12). […] The observed increases in H3K4me3 levels at intragenic and intergenic regions are therefore due directly to PRDM9 PR domain-dependent methylation activity, rather than through recruitment of other H3K4 methyltransferases or other indirect mechanisms.
ChIP qPCR analyses of H3K4me3 methylation levels of known PRDM9-bound loci and control loci. […] Concentrations used (µM) are indicated below each plot. (a–d) represent reported loci of PRDM9 methylation; (e, f) are transcriptional start sites (TSSs) which are not known loci of PRDM9 methylation. Data are normalized to total H3 and are presented as the mean ± upper and lower limits from two replicates. Representative plots of two independent experiments are shown in this figure. The coordinates and the genomic features associated with the assayed loci are indicated above each plot. Left Tailed Student's t-tests were performed by comparing DMSO (0 µM) treated cells to compound treated cells that have been transfected with the same plasmids. *p-value < 0.05 and **p-value < 0.01. Note that here we show a representative of two independent experiments (mean ± s.d of technical replicates) for our ChIP-qPCR experiments. Data obtained using this technique are inherently noisy due to stochastic differences in gene activity/histone positioning. Data are thus typically presented as representative rather than averaged. Source data are provided as a Source Data file.
HEK293T cells were transfected with 37.5 μg empty pcDNA3.1(+) vector (Invitrogen), or the same vector expressing either wild-type PRDM9 (PRDM9^WT) or a catalytically dead PRDM9 mutant (PRDM9^Mut) and 75 μL of Lipofectamine 2000 (Invitrogen) in 6 mL of Opti-MEM (GIBCO) for 48 h. […] ChIP assays were then performed as previously described. Briefly, cells were fixed in 1% formaldehyde and the fixation reaction was quenched in a final concentration of 0.1 M glycine. Cell pellets were first lysed in LB1 (50 mM HEPES-KOH pH 7.5, 140 mM NaCl, 1 mM EDTA, 10% Glycerol, 0.5% Igepal, 0.25% TritonX), washed once in LB2 Buffer (10 mM Tris-HCl pH 8, 200 mM NaCl, 1 mM EDTA, 0.5 mM EGTA) and finally sonicated in LB3 buffer (10 mM Tris-HCl pH 8, 100 mM NaCl, 1 mM EDTA, 0.5 mM EGTA, 0.1% Sodium deoxycholate, 0.5% N-laurosylsarcosine) using a bioruptor (Diagenode). Thereafter, 50 μg of chromatin was subjected to ChIP using the following antibodies purchased from Abcam: α-H3K4me3 (1:200, ab8580, lot:GR3207339-1) and α-H3 (1:250, ab1791, lot:GR300978-4). After extensive washing in RIPA wash buffer (50 mM HEPES-KOH pH 7.6, 100 mM LiCl, 1 mM EDTA, 1% Igepal, 0.7% Sodium Deoxycholate), DNA was eluted from beads. The eluted DNA was treated with RNase A and Proteinase K and purified using the QIAGEN PCR purification kit. qPCR was then carried out targeting the indicated loci (Supplementary Table 3). Upper and lower limits were defined by |2^−(dCq±s) − 2^−(∆Cq)|, where s = √((Standard deviation of Input Cq)^2 + (Standard deviation of Target Cq)^2). […]
formation. ChIP qPCR analyses of H3K4me3 methylation levels at known PRDM9-bound and control loci. Cells transfected with empty vector (negative control) or vectors overexpressing either wild-type PRDM9 (PRDM9 WT) or catalytically dead PRDM9 (PRDM9 MUT) were […]
Panels a-d represent reported loci of […]
(1 picture or pasted object on this page, not shown here)
PRDM9 methylation; e-f are TSSs which are not known sites of PRDM9 methylation. Data are normalized to total H3 and are presented as the mean ± upper and lower limits from two […]

[1] = Figure 7 E chr12:6643945-6644023 TSS (GAPDH), Plasmid Empty Vector, Drug Conc. 5
[2] = Figure 7 E chr12:6643945-6644023 TSS (GAPDH), Plasmid Empty Vector, Drug Conc. 10
[3] = Figure 7 E chr12:6643945-6644023 TSS (GAPDH), Plasmid PRDM9WT, Drug Conc. 5
[4] = Figure 7 E chr12:6643945-6644023 TSS (GAPDH), Plasmid PRDM9WT, Drug Conc. 10
[5] = Figure 7 F chr19:8510167-8510261 TSS (HNRNPM), Plasmid Empty Vector, Drug Conc. 5
[6] = Figure 7 F chr19:8510167-8510261 TSS (HNRNPM), Plasmid Empty Vector, Drug Conc. 10
[7] = Figure 7 F chr19:8510167-8510261 TSS (HNRNPM), Plasmid PRDM9WT, Drug Conc. 5
[8] = Figure 7 F chr19:8510167-8510261 TSS (HNRNPM), Plasmid PRDM9WT, Drug Conc. 10

COc1cc(OC)cc(-c2noc(N3CCN(C)C4(CCN(c5ccccc5)CC4)C3)n2)c1 [MRK-740-NC]
2^-dCq (Plasmid PRDM9WT, Drug Conc. 5): 34.845 | dCq (IP-Input) (Plasmid PRDM9WT, Drug Conc. 5): -5.123 | 2^-dCq (Plasmid PRDM9WT, Drug Conc. 10): 50.1539 | dCq (IP-Input) (Plasmid PRDM9WT, Drug Conc. 10): -5.648 | 2^-dCq (H3K4me3 IP relative to H3 IP) [1]: 96.9166 | 2^-dCq (H3K4me3 IP relative to H3 IP) [2]: 40.6216 | 2^-dCq (H3K4me3 IP relative to H3 IP) [3]: 33.0164 | 2^-dCq (H3K4me3 IP relative to H3 IP) [4]: 25.1288 | 2^-dCq (H3K4me3 IP relative to H3 IP) [5]: 88.9762 | 2^-dCq (H3K4me3 IP relative to H3 IP) [6]: 43.9056 | 2^-dCq (H3K4me3 IP relative to H3 IP) [7]: 32.8222 | 2^-dCq (H3K4me3 IP relative to H3 IP) [8]: 26.0973 | Cq (Plasmid PRDM9WT, Drug Conc. 5): 21.4925 and 21.6408 | Cq (Plasmid PRDM9WT, Drug Conc. 10): 21.2248 and 20.9811 | 2^-dCq (H3K4me3 ChIP relative to H3 ChIP) (Figure 7 A, chr2:128811847-128811944 (Intergenic), Plasmid Empty Vector, Drug Conc. 5): 0.5813 | 2^-dCq (H3K4me3 ChIP relative to H3 ChIP) (Figure 7 A, chr2:128811847-128811944 (Intergenic), Plasmid Empty Vector, Drug Conc. 10): 0.3956 | 2^-dCq (H3K4me3 ChIP relative to H3 ChIP) (Figure 7 A, chr2:128811847-128811944 (Intergenic), Plasmid PRDM9WT, Drug Conc. 5): 2.494 | 2^-dCq (H3K4me3 ChIP relative to H3 ChIP) (Figure 7 A, chr2:128811847-128811944 (Intergenic), Plasmid PRDM9WT, Drug Conc. 10): 2.2717 | 2^-dCq (H3K4me3 ChIP relative to H3 ChIP) (Figure 7 B, chr8:49932778-49932856 (Intergenic), Plasmid Empty Vector, Drug Conc. 5): 0.3925 | 2^-dCq (H3K4me3 ChIP relative to H3 ChIP) (Figure 7 B, chr8:49932778-49932856 (Intergenic), Plasmid Empty Vector, Drug Conc. 10): 0.1726 | 2^-dCq (H3K4me3 ChIP relative to H3 ChIP) (Figure 7 B, chr8:49932778-49932856 (Intergenic), Plasmid PRDM9WT, Drug Conc. 5): 4.749 | 2^-dCq (H3K4me3 ChIP relative to H3 ChIP) (Figure 7 B, chr8:49932778-49932856 (Intergenic), Plasmid PRDM9WT, Drug Conc. 10): 4.289 | 2^-dCq (H3K4me3 ChIP relative to H3 ChIP) (Figure 7 C, chr2:40281930-40282015 Intragenic (SLC8A1-AS1), Plasmid Empty Vector, Drug Conc. 5): 0.3263 | 2^-dCq (H3K4me3 ChIP relative to H3 ChIP) (Figure 7 C, chr2:40281930-40282015 Intragenic (SLC8A1-AS1), Plasmid Empty Vector, Drug Conc. 10): 0.2399 | 2^-dCq (H3K4me3 ChIP relative to H3 ChIP) (Figure 7 C, chr2:40281930-40282015 Intragenic (SLC8A1-AS1), Plasmid PRDM9WT, Drug Conc. 5): 5.248 | 2^-dCq (H3K4me3 ChIP relative to H3 ChIP) (Figure 7 C, chr2:40281930-40282015 Intragenic (SLC8A1-AS1), Plasmid PRDM9WT, Drug Conc. 10): 4.126 | H3K4me3 levels at PRDM9-dependent intragenic and intergenic loci (ChIP-qPCR, in words) (HEK293T transfected with wild-type PRDM9, 48 h, various concentrations): negligible impact | 2^-dCq (H3K4me3 ChIP-qPCR, IP relative to H3) (Figure 7 D chr3:165514798-165514911 Intragenic (BCHE), Plasmid Empty Vector, Drug Conc. 5): 0.55 | 2^-dCq (H3K4me3 ChIP-qPCR, IP relative to H3) (Figure 7 D chr3:165514798-165514911 Intragenic (BCHE), Plasmid Empty Vector, Drug Conc. 10): 0.9804 | 2^-dCq (H3K4me3 ChIP-qPCR, IP relative to H3) (Figure 7 D chr3:165514798-165514911 Intragenic (BCHE), Plasmid PRDM9WT, Drug Conc. 5): 6.945 | 2^-dCq (H3K4me3 ChIP-qPCR, IP relative to H3) (Figure 7 D chr3:165514798-165514911 Intragenic (BCHE), Plasmid PRDM9WT, Drug Conc. 10): 8.326 | 2^-dCq (H3K4me3 ChIP-qPCR, IP relative to H3) [1]: 90.8317 | 2^-dCq (H3K4me3 ChIP-qPCR, IP relative to H3) [2]: 79.4548 | 2^-dCq (H3K4me3 ChIP-qPCR, IP relative to H3) [3]: 29.3928 | 2^-dCq (H3K4me3 ChIP-qPCR, IP relative to H3) [4]: 64.1533 | 2^-dCq (H3K4me3 ChIP-qPCR, IP relative to H3) [5]: 64.4199 | 2^-dCq (H3K4me3 ChIP-qPCR, IP relative to H3) [6]: 72.9088 | 2^-dCq (H3K4me3 ChIP-qPCR, IP relative to H3) [7]: 34.845 | 2^-dCq (H3K4me3 ChIP-qPCR, IP relative to H3) [8]: 50.1539 | H3K4me3 ChIP-qPCR 2^-dCq (IP-Input) (chr2:40281930-40282015 Intragenic (SLC8A1-AS1), Figure 7 C, Empty Vector, Drug Conc. 5): 0.5453 | H3K4me3 ChIP-qPCR 2^-dCq (IP-Input) (chr2:40281930-40282015 Intragenic (SLC8A1-AS1), Figure 7 C, Empty Vector, Drug Conc. 10): 0.744 | H3K4me3 ChIP-qPCR 2^-dCq (IP-Input) (chr2:40281930-40282015 Intragenic (SLC8A1-AS1), Figure 7 C, PRDM9WT, Drug Conc. 5): 5.233 | H3K4me3 ChIP-qPCR 2^-dCq (IP-Input) (chr2:40281930-40282015 Intragenic (SLC8A1-AS1), Figure 7 C, PRDM9WT, Drug Conc. 10): 7.127 | H3K4me3 ChIP-qPCR 2^-dCq (IP-Input) (chr2:128811847-128811944 (Intergenic), Figure 7 A, Empty Vector, Drug Conc. 5): 1.312 | H3K4me3 ChIP-qPCR 2^-dCq (IP-Input) (chr2:128811847-128811944 (Intergenic), Figure 7 A, Empty Vector, Drug Conc. 10): 1.714 | H3K4me3 ChIP-qPCR 2^-dCq (IP-Input) (chr2:128811847-128811944 (Intergenic), Figure 7 A, PRDM9WT, Drug Conc. 5): 3.31 | H3K4me3 ChIP-qPCR 2^-dCq (IP-Input) (chr2:128811847-128811944 (Intergenic), Figure 7 A, PRDM9WT, Drug Conc. 10): 4.0213 | H3K4me3 ChIP-qPCR 2^-dCq (IP-Input) (chr8:49932778-49932856 (Intergenic), Figure 7 B, Empty Vector, Drug Conc. 5): 0.869 | H3K4me3 ChIP-qPCR 2^-dCq (IP-Input) (chr8:49932778-49932856 (Intergenic), Figure 7 B, Empty Vector, Drug Conc. 10): 0.9683 | H3K4me3 ChIP-qPCR 2^-dCq (IP-Input) (chr8:49932778-49932856 (Intergenic), Figure 7 B, PRDM9WT, Drug Conc. 5): 6.096 | H3K4me3 ChIP-qPCR 2^-dCq (IP-Input) (chr8:49932778-49932856 (Intergenic), Figure 7 B, PRDM9WT, Drug Conc. 10): 6.298 | <Cq> (Plasmid PRDM9WT, Drug Conc. 5): 21.5667 | <Cq> (Plasmid PRDM9WT, Drug Conc. 10): 21.103
